The values that follow come from patent publication US20060241084A1, “Inhibition of vascular endothelial growth factor” (THE HOSPITAL FOR SICK CHILDREN, priority 2002, published 2006).

pIC50: −log10 of the molar value.

In assay [1] the test system is VEGF secretion from HTB-133 and MDA-231 cells. Kind of assay: CR11 and CR19 dependent inhibition of VEGF secretion from breast cancer cell lines (VEGF-165 ELISA of medium). Particulars: Homo sapiens, MDA-MB-231, 10^6 cells/ml incubated 5 hours with compound, washed, fresh medium 24 hours, FIGS. 6 and 7. The assay is classed as cell-based. Here is the method: CR11 and CR19 dependent inhibition of VEGF secretion from breast cancer cell lines.
Procedure: 10^6 cells/ml of each of HTB-133 and MDA-231 cells were incubated for 5 hours with various concentrations of CR11 or CR19. Cells were washed twice in PBS to remove CR11 and CR19 and fresh medium was added for 24 hours. Medium was collected and analysed for the presence of VEGF using VEGF-165 ELISA kit (R&D Systems).

Assay [2] is described as follows: CR-4 dependent inhibition of VEGF secretion from cell lines (VEGF-165 ELISA of medium). The class given is cell-based. As to conditions: Homo sapiens; all cell lines; 10^6 cells/ml incubated 5 hrs with compound, washed, fresh medium 24 hrs; FIGS. 1 to 4. The procedure: VEGF secretion from the breast cancer cell lines HTB-133 (KDR+), HTB-131 (KDR−) and MDA-231, HTB-181 prostate cancer cell line, HTB-72 melanoma cell line, CR2-1730 human umbilical vascular endothelial (HUV-EC-C) cell line and normal HUVEC primary cells was measured as follows.
Medium was collected and analysed for the presence of VEGF using VEGF-165 ELISA kit (R&D Systems).
CR-4 dependent inhibition of VEGF secretion from breast, prostate, melanoma and HUVEC cell lines.
10^6 cells/ml of each cell lines were incubated for 5 hrs. with various concentrations of CR-4. Cells were washed twice in PBS to remove CR4 and fresh medium was added for 24 hrs. Medium was collected and analysed for the presence of VEGF using VEGF-165 ELISA kit (R&D Systems).

Assay [3] has as its system HUVEC. Description: Inhibition of HUVEC growth by CR-4 induced VEGF depleted media of breast cancer cell lines ([3H]-Thymidine incorporation). The assay is classed as cell-based, human. As to conditions: FIG. 5. Here is the method: CR-4 dependent inhibition of VEGF secretion results in the inhibition of HUVEC growth.
After an incubation for 5 hrs. with various concentrations of CR-4 the wells were washed twice and fresh HUVEC medium was added for 24 hrs. This medium with or without 10 ng/ml of recombinant VEGF was then transferred to parallel wells containing 10^5 cells/ml of HUVEC that were plated and grown in HUVEC medium for 24 hrs. Radioactive labelled [^3H]-Thymidine was added to HUVEC wells over night. Cells were harvested and their [^3H]-Thymidine incorporation was measured.

As for `COc1cc(/C=C/C=C(\C#N)C(=O)NCc2ccc(O)c(O)c2)cc(OC)c1O` [CR11, (E,E)-2-(3,4-Dihydroxybenzylaminocarbonyl)-3-(3,5-dimethoxy-4-hydroxystyryl)acrylonitrile], the pIC50 in assay [1] was about 7.52.

For the molecule `N#C/C(=C\C=C\c1ccc(O)c(O)c1)C(=O)NCc1ccccc1` [CR4, (E,E)-2-(Benzylaminocarbonyl)-3-(3,4-dihydroxystyryl)acrylonitrile], the pIC50 was 7.52 to 8.00 in assay [2]; 7.52 to 7.70 in assay [3] (Homo sapiens, medium of HTB-133 (KDR+) and HTB-131 (KDR-) cells treated 5 hrs with compound, transferred to HUVEC, [3H]-Thymidine incorporation). Moreover, the “Effect of recombinant VEGF on the inhibition of HUVEC growth” value in assay [3] (10 ng/ml recombinant VEGF added to the conditioned medium) is reported as “rescued by recombinant VEGF”.

For the molecule `N#C/C(=C\C=C\c1ccccc1)C(=O)NCc1ccc(O)c(O)c1` [CR19, (E,E)-2-(3,4 Dihydroxybenzylaminocarbonyl)-3-styrylacrylonitrile], the negative logarithm of the IC50 (pIC50) in assay [1] was about 7.52.
